Assay results taken from US10118954B2, “Apelin analogues” (University of Ulster, priority 2014, dated 2018).

Tests used:
[1] = test system: NIH Swiss mice fed a high-fat diet for 150 days; assay: Acute and delayed i.p. glucose tolerance test, blood glucose and plasma insulin; format: in vivo; details: acute, Table 4
Outline: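 Diet-induced obese-diabetic mice (high-fat diet 150 days, 18 h fasted) received i.p. glucose (18 mmol/kg) alone or with apelin analogues (25 nmol/kg), or analogues given 2, 8 or 16 h beforehand. Tail blood glucose and plasma insulin sampled at 0, 15, 30, 60, 105 min; n=8, mean±SEM.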

[2] = Degradation of apelin peptides by plasma from fasted normal NIH Swiss mice (rp-HPLC, MALDI-TOF MS); format: in vitro ADME
Outline: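 Apelin peptides were incubated with plasma from fasted normal NIH Swiss mice for 4 h, and the reaction was stopped with TFA. Products were separated by C-8 rp-HPLC with detection at 214 nm. Peak fractions were identified by MALDI-TOF MS, giving fragment molecular weights and retention times.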

[3] = test system: male NIH Swiss mice; assay: Acute effects of apelin analogues on voluntary food intake; format: in vivo; details: 100 nmol/kg i.p., FIG. 37
Description: Saline and peptide analogues were administered by intraperitoneal injection and cumulative food intake was monitored at 30, 60, 90 and 120 min after feeding.
Mice were habituated to a daily feeding regime of 3 h/day by progressively reducing the daily feeding period over 3 weeks. This was performed to ensure mice consumed entire daily food intake within 3 h, thereby allowing “peptide” effects to be measured over the known eating period of mice. On days 1 to 7, mice were supplied with food from 10:00 h to 20:00 h, on days 8 to 14, food was presented from 10:00 h to 19:00 h and on days 15 to 21, food was restricted to the 3 h interval from 10:00 h to 13:00 h. This regime was continued throughout the experimental period.
Mice that were habituated to a 3 h daily feeding regime were administered with an i.p. injection of saline (0.9% w/v NaCl) or apelin peptide (1-100 nmol/kg bw) at 10:00 h (n=8). Immediately following injection, food was initially weighed and then presented to the mice and subsequently weighed at 30 min intervals up to 180 min.

[4] = peptide 25 nmol/kg i.p. with glucose 18 mmol/kg
[5] = plasma incubation 4 h, fragment identified by MALDI-TOF MS

SMILES: CSCC[C@H](NC(=O)[C@@H]1CCCN1C(=O)CNC(=O)[C@H](CCCCN)NC(=O)[C@H](Cc1cnc[nH]1)NC(=O)[C@H](CO)NC(=O)[C@H](CC(C)C)NC(=O)[C@H](CCCNC(=N)N)NC(=O)[C@@H]1CCCN1C(=O)[C@H](CCCNC(=N)N)NC(=O)[C@@H](N)CCC(N)=O)C(=O)N1CCC[C@H]1C(=O)N[C@@H](Cc1ccccc1)C(=O)O [Apelin-13, reference compound]
- Rank order on basis of anti-hyperglycaemic efficacy [1]: 6
- Blood glucose as percent of glucose-alone control (lower = stronger glucose lowering) [1, 4]: 92% ^
- Insulin secretion, where glucose alone = 100% [1, 4]: 111% ^
- remaining at 4 h, 263 µg/mL ([2]; NIH Swiss, pH 7.4, mouse plasma, 37° C., 4 h, mean ± SEM, 2 experiments, read-out: % intact peptide (4 h)): 25.4 ± 1.5%
- half-life at 263 µg/mL ([2]; NIH Swiss, pH 7.4, mouse plasma, estimated by linear regression of % intact peptide against time, read-out: Half-life (t1/2) (converted)): 126 min
- Rank order of stability ([2]; mouse plasma, 1 = most stable): 14
- Degradation fragment, Peak 1 [2, 5]: Apelin-13 (1-11)
- Degradation fragment, Peak 2 [2, 5]: Apelin-13 (1-12)
- Reduction of food intake ([3]; at 90 min): 16.7%
- Persistence of the food intake reduction ([3]; over 3 h): not sustainable over 3 h
